The source of these data is article PMC12040169 (PLOS Biology, 2025).

Structures are written as SMILES.

The nature of this series: in vitro. To be noted: human, hela cells, % viability.
Turning to `O=C(O)c1ccc(-c2cnc3ccccc3n2)cc1` [CBK288010], the viability – broadly, a read-out of living cells in per cent, often relative to untreated cells – at 28.5 h, 10 µM came out at 106%.

With `CCCCn1nc2[nH]c(=O)cc(C(F)F)c2c1C` [CBK288011], the viability at 28.5 h, 10 µM was found to be 93.8%.

As for `COc1cccc(NC(=O)CCn2ncc(Cl)c2C)c1` [CBK288012], the viability at 28.5 h, 10 µM stood at 94.9%.

As for `O=c1cc(C(F)F)c2cn(C3CCCC3)nc2[nH]1` [CBK288016], the viability at 28.5 h, 10 µM was 91.8%.

Consider `Cn1ncc2c(C(=O)O)cc(-c3ccccc3)nc21` [CBK288024], for which the viability at 28.5 h, 10 µM was found to be 88.9%.

Consider `Cc1ccccc1C1NC(=O)NC2=C1C(=O)N(C)C2` (stereo not drawn) [CBK288026], for which the viability at 28.5 h, 10 µM is 96.8%.

For the compound `CCn1c(SCC(=O)N2CCCC2)nc2cc(C)[nH]c2c1=O` [CBK288027], the viability at 28.5 h, 10 µM was determined as 99.9%.

Take `COc1cccc(Nc2[nH]nnc2C(=O)Nc2cccc(C)c2C)c1` [CBK288028]: the viability at 28.5 h, 10 µM was found to be 102%.

Take `Cc1ccccc1N1CCN(C(=O)c2nn[nH]c2Nc2ccccc2F)CC1` [CBK288032]: the viability at 28.5 h, 10 µM is 101%.

On to `O=c1[nH]c(CNc2ccccc2)nc2ccccc12` [CBK288038], for which the viability at 28.5 h, 10 µM came out at 103%.

On to `Cn1c(SCc2ccccc2)nc2ccsc2c1=O` [CBK288039], for which the viability at 28.5 h, 10 µM stood at 82.1%.

In the case of `O=C1NC2(CCCC2)N=C1c1ccc(Cl)cc1Cl` [CBK288042], the viability at 28.5 h, 10 µM came to 82.4%.

As to `O=c1[nH]c2c(-c3ccccc3)nnn2c2ccccc12` [CBK288047], the viability at 28.5 h, 10 µM turned out to be 98.3%.

For the compound `O=c1[nH]ccn2nc(-c3ccc4c(c3)OCO4)cc12` [CBK288048], the viability at 28.5 h, 10 µM was found to be 87.7%.

As for `N#Cc1cnc2ccccc2c1N1CCC(C(=O)O)CC1` [CBK288050], the viability at 28.5 h, 10 µM turned out to be 90%.

On to `COc1ccc2ncc3c(-c4ccccc4)n[nH]c3c2c1` [CBK288052], for which the viability at 28.5 h, 10 µM amounted to 93.3%.

As for `COc1cccc(CNC(=O)c2cn[nH]c2-c2cccc(C)c2)c1` [CBK288056], the viability at 28.5 h, 10 µM is 102%.

Consider `COc1ccc(CNC(=O)c2cn[nH]c2-c2ccccc2)c(OC)c1` [CBK288057], for which the viability at 28.5 h, 10 µM turned out to be 100%.

Take `COc1ccc(C(C)NC(=O)c2cc(-c3ccc(F)cc3)[nH]n2)cc1` (stereo not drawn) [CBK288060]: the viability at 28.5 h, 10 µM turned out to be 87%.

`Cc1ccc(N2CC(c3nnc(N)o3)CC2=O)cc1` (stereo not drawn) [CBK288061]: the viability at 28.5 h, 10 µM was 93.8%.

`O=C1CC(c2ccccc2)n2nc(C(F)(F)F)nc2N1` (stereo not drawn) [CBK288063]: the viability at 28.5 h, 10 µM came to 114%.

With `Cc1ccc(C2CC(c3cccnc3)Nc3nnnn32)cc1` (stereo not drawn) [CBK288067], the viability at 28.5 h, 10 µM was found to be 97.9%.

Regarding `O=c1[nH]c(Nc2ccccc2)nc2nccc(-c3ccccc3)c12` [CBK288072], the viability at 28.5 h, 10 µM stood at 88.8%.

`O=C(c1nc2ncccn2n1)N1CCc2ccccc2C1` [CBK288079]: the viability at 28.5 h, 10 µM stood at 88%.

For the compound `CC1CCc2onc(C(=O)Nc3ccncc3)c2C1` (stereo not drawn) [CBK288080], the viability at 28.5 h, 10 µM was 110%.

Turning to `Cc1nc2ccccc2n1CC(O)COc1ccccc1` (stereo not drawn) [CBK288084], the viability at 28.5 h, 10 µM is 106%.

Consider `COc1cc(CNc2nnn[nH]2)cc(Cl)c1OC` [CBK288087], for which the viability at 28.5 h, 10 µM was 97.8%.

Consider `CCCn1nnc(NCc2ccc(Cl)cc2)n1` [CBK288089], for which the viability at 28.5 h, 10 µM was 97.2%.

On to `CCC(C)NCc1cccc(Oc2ncccn2)c1` (stereo not drawn) [CBK288090], for which the viability at 28.5 h, 10 µM was determined as 106%.

Consider `Cc1nc2ccccc2c(=O)n1Cc1cccnc1` [CBK288092], for which the viability at 28.5 h, 10 µM worked out at 94.3%.

Consider `CC(Nc1ncnc2c1cnn2C)c1ccccc1` (stereo not drawn) [CBK288093], for which the viability at 28.5 h, 10 µM was found to be 106%.

Consider `Fc1ccc(C2C=C(c3ccc(F)cc3F)Nc3ncnn32)cc1` (stereo not drawn) [CBK288095], for which the viability at 28.5 h, 10 µM was found to be 99.7%.

Regarding `CC(C)c1ccc(-n2ncc3c(=O)[nH]cnc32)cc1` [CBK288096], the viability at 28.5 h, 10 µM stood at 70.7%.

On to `Cc1ccc(Nc2nc(N(C)C)nc3[nH]ncc23)cc1` [CBK288098], for which the viability at 28.5 h, 10 µM is 108%.

`CSc1ccccc1Nc1ncnc2n[nH]cc12` [CBK288099]: the viability at 28.5 h, 10 µM worked out at 114%.

On to `Cc1ccc(-n2cc(-c3ccccc3)[nH]c2=O)cc1` [CBK288103], for which the viability at 28.5 h, 10 µM is 101%.

`CCOc1ccc(-c2nc(N)ncc2Oc2ccc(OC)cc2)c(O)c1` [CBK288105]: the viability at 28.5 h, 10 µM came to 101%.

With `CCOc1ccc(-c2n[nH]c(C)c2-c2ccc(OC)c(OC)c2)c(O)c1` [CBK288106], the viability at 28.5 h, 10 µM was 102%.

Turning to `CN(C(=O)c1ccc(-n2nncc2-c2ccccc2)cc1)c1ccccc1` [CBK288107], the viability at 28.5 h, 10 µM was found to be 108%.

Take `COc1cccc(-c2cc(C(=O)N3CCC(C)CC3)n[nH]2)c1` [CBK288109]: the viability at 28.5 h, 10 µM stood at 94.3%.

Regarding `CCOc1ccc(-c2ncncc2-c2ccccc2)c(O)c1` [CBK288111], the viability at 28.5 h, 10 µM turned out to be 86.4%.

For `COc1ccc(-c2cn[nH]c2-c2ccc(OCCN3CCOCC3)cc2O)cc1` [CBK288112], the viability at 28.5 h, 10 µM was found to be 97%.

`COc1ccc(-c2cc(C(=O)Nc3c(C)cccc3C)n[nH]2)c(OC)c1` [CBK288114]: the viability at 28.5 h, 10 µM is 107%.

For `Nc1nn2c(-c3cccc(Cl)c3)nnc2s1` [CBK288122], the viability at 28.5 h, 10 µM worked out at 73.2%.

On to `O=c1ccnc(SCc2cccc(Cl)c2)[nH]1` [CBK288123], for which the viability at 28.5 h, 10 µM came to 100%.

`O=C1Nc2cc(C(F)(F)F)ccc2N2CCCC12` (stereo not drawn) [CBK288125]: the viability at 28.5 h, 10 µM stood at 99.7%.

Consider `CNC(=O)c1cnc2sc3c(n2c1=O)CCCC3` [CBK288126], for which the viability at 28.5 h, 10 µM came to 102%.

As for `CCOc1cccc(CNc2nn[nH]n2)c1OCc1ccc(C)cc1` [CBK288127], the viability at 28.5 h, 10 µM was found to be 110%.

As to `CCCn1nnnc1NCc1cccc(Cl)c1` [CBK288130], the viability at 28.5 h, 10 µM came out at 98.7%.

On to `C=CCn1nnc(NC(=O)COc2ccccc2)n1` [CBK288131], for which the viability at 28.5 h, 10 µM was determined as 108%.

As to `COc1ccccc1CNC(=O)c1ccc(=O)[nH]c1` [CBK288133], the viability at 28.5 h, 10 µM is 106%.

`Cc1cc(C)nc(-n2ncc(C#N)c2NC(=O)c2ccccc2)n1` [CBK288135]: the viability at 28.5 h, 10 µM turned out to be 111%.

`Cn1c(=O)[nH]c(=O)c2c(-c3ccccc3)ccnc21` [CBK288136]: the viability at 28.5 h, 10 µM is 72%.

In the case of `Cc1ccc(-c2nc3ccccc3c(=O)o2)cc1C` [CBK288137], the viability at 28.5 h, 10 µM amounted to 97.4%.

On to `Cc1ccccc1N1CC(C(=O)Nc2cccnc2)CC1=O` (stereo not drawn) [CBK288138], for which the viability at 28.5 h, 10 µM was 88.3%.

As for `Nc1ncnc(N(c2ccccc2)c2ccccc2)n1` [CBK288139], the viability at 28.5 h, 10 µM stood at 104%.

`CCCc1cc(=O)[nH]c(Nc2ccc(OCC)cc2)n1` [CBK288140]: the viability at 28.5 h, 10 µM turned out to be 112%.

Turning to `Cc1ccc(Cc2nc(-c3cccnc3)no2)cc1` [CBK288141], the viability at 28.5 h, 10 µM amounted to 94.3%.

In the case of `Cc1cccc(/N=C(\N)Nc2nc(=O)cc(C)[nH]2)c1` [CBK288144], the viability at 28.5 h, 10 µM worked out at 93.1%.

Take `COc1ccc(-n2cnc3ccccc3c2=O)cc1` [CBK288145]: the viability at 28.5 h, 10 µM turned out to be 94.4%.

Turning to `Cc1ccc(C2C3=C(CC(C)(C)CC3=O)Nc3[nH][nH]c(=O)c32)o1` (stereo not drawn) [CBK288147], the viability at 28.5 h, 10 µM amounted to 104%.

Take `O=C(COc1ccc2c(c1)OCO2)Nc1ccccn1` [CBK288148]: the viability at 28.5 h, 10 µM came out at 86.6%.

Consider `O=C(Nc1ccccc1C(=O)c1ccccc1)c1ccccn1` [CBK288150], for which the viability at 28.5 h, 10 µM came to 89.1%.

Consider `CCC(Oc1ccccc1)C(=O)Nc1cc(C)on1` (stereo not drawn) [CBK288152], for which the viability at 28.5 h, 10 µM was 101%.

As for `COc1ccc(Nc2nc(N)nc(CN3CC(C)CC(C)C3)n2)cc1` (stereo not drawn) [CBK288154], the viability at 28.5 h, 10 µM is 99.2%.

On to `CCCCCc1nnc(Nc2nc(C)cc(C)n2)[nH]1` [CBK288155], for which the viability at 28.5 h, 10 µM was 95.4%.

For the compound `Cc1ccc(-c2cc(C(=O)Nc3cccnc3)[nH]n2)c(O)c1C` [CBK288158], the viability at 28.5 h, 10 µM was 93.3%.

With `Cc1oc2ncn(Cc3ccccc3)c(=N)c2c1C` [CBK288160], the viability at 28.5 h, 10 µM turned out to be 94.4%.

In the case of `COc1ccc(Nc2ncnc3c2c(C)c(C)n3CCO)cc1` [CBK288161], the viability at 28.5 h, 10 µM amounted to 102%.

For `COc1ccc(Nc2ncnc3oc(C)c(C)c23)cc1` [CBK288163], the viability at 28.5 h, 10 µM was determined as 93.3%.

Consider `Cc1cc(C)nc(NC(=O)c2cccc(Cl)c2)n1` [CBK288165], for which the viability at 28.5 h, 10 µM amounted to 90%.

For the compound `Cc1ccc(C2CC(=O)c3cnc(N)nc3C2)cc1` (stereo not drawn) [CBK288166], the viability at 28.5 h, 10 µM was determined as 92%.

For `Cc1cc(C)nc(Nc2n[nH]c(-c3ccccc3Cl)n2)n1` [CBK288167], the viability at 28.5 h, 10 µM was found to be 98.2%.

Turning to `Nc1n[nH]c2nc(-c3ccccc3)c3c(c12)CCC3` [CBK288178], the viability at 28.5 h, 10 µM was 88.8%.

In the case of `COc1cc2c(=O)n(C)c3nncn3c2cc1OC` [CBK288182], the viability at 28.5 h, 10 µM was determined as 98.1%.

In the case of `Nc1nc(COc2ccc(F)cc2)nc(N2CCOCC2)n1` [CBK288183], the viability at 28.5 h, 10 µM stood at 91.5%.

On to `C=C(C)Cn1c(=O)c2c(nc3[nH]c(C)c(C)n32)n(C)c1=O` [CBK288184], for which the viability at 28.5 h, 10 µM turned out to be 102%.

As to `Cc1cc(C)n(C(=O)c2cn3cc(Cl)ccc3n2)n1` [CBK288185], the viability at 28.5 h, 10 µM came to 98.6%.

For the compound `COc1ccc(-c2c(C)nc(N)nc2-c2ccc(OC)cc2O)cc1` [CBK288186], the viability at 28.5 h, 10 µM stood at 85.7%.

For the compound `Cc1cc(C)c2c(N)c(-c3ccncc3)sc2n1` [CBK288189], the viability at 28.5 h, 10 µM was found to be 88.7%.

As to `Cc1sc2ncn(CCC(=O)O)c(=O)c2c1C` [CBK288191], the viability at 28.5 h, 10 µM is 115%.

Turning to `c1ccc(COc2ccc(-n3cnnn3)cc2)nc1` [CBK288196], the viability at 28.5 h, 10 µM worked out at 83.5%.

For the compound `Fc1cccc(COc2nc3ccccc3n3nnnc23)c1` [CBK288198], the viability at 28.5 h, 10 µM was found to be 114%.

For `Cc1ccc(-c2c(N3C(=O)c4cccnc4C3=O)n[nH]c2C)cc1` [CBK288199], the viability at 28.5 h, 10 µM came to 101%.

In the case of `CC(=O)Nc1nc2[nH]c(C)c(Cc3ccccc3)c(=O)n2n1` [CBK288202], the viability at 28.5 h, 10 µM stood at 89%.

For the compound `CC(C)(C)C(=O)/N=c1/[nH]nc(-c2cccnc2)s1` [CBK288203], the viability at 28.5 h, 10 µM turned out to be 98.3%.

`Cc1ccc(C(=O)N2CCn3c2nc2ccccc23)cc1` [CBK288204]: the viability at 28.5 h, 10 µM was 108%.
